Experiments:
Type in all cases: in vivo
Rice (Oryza sativa) = assay: Test Example 3 paddy field treatment, crop phytotoxicity; conditions: paddy field treatment, transplanted rice Koshihikari, wettable powder, active ingredient 1 kg per hectare, 21st day after the dropping, index 0-5
How it was run: (§1)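 Weed seeds sown in puddled paddy soil under 4 cm water, with two-leaf Koshihikari rice transplanted; 10 days later a wettable powder was applied to the water surface at 1 kg active ingredient/ha. Scored 21 days after application on a 0–5 scale (0 = <10%, 5 = ≥90% herbicidal effect or phytotoxicity).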

[1] = tested on: wheat (Triticum aestivum); assay: Test Example 1 upland field foliage treatment, crop phytotoxicity; conditions: Table 4, upland field foliage treatment, index 0-5
How it was run: (§2)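 Scores are visual 0–5 ratings of herbicidal effect or crop injury (0: under 10%; 5: 90% or more) taken 21 days after treatment. Plants grew from seed in upland soil for 14 days, then foliage received the compound as a water-diluted wettable powder at 1 kg/ha active ingredient.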

soybean (Glycine max) [2] = assay: as above; conditions: Table 4, upland field foliage treatment, index 0-5
How it was run: as §2

Stellaria media [3] = assay: Test Example 1 upland field foliage treatment; conditions: Table 4, upland field foliage treatment, index 0-5
How it was run: as §2

Chenopodium album [4] = assay: Test Example 1 upland field foliage treatment; conditions: Table 4, upland field foliage treatment, index 0-5
How it was run: as §2

Setaria viridis [5] = assay: Test Example 1 upland field foliage treatment; conditions: Table 4, upland field foliage treatment, index 0-5
How it was run: as §2

Digitaria adscendens [6] = assay: Test Example 1 upland field foliage treatment; conditions: Table 4, upland field foliage treatment, index 0-5
How it was run: as §2

[7] = tested on: wheat (Triticum aestivum); assay: Test Example 2 upland soil treatment, crop phytotoxicity; conditions: Table 5, upland soil treatment, index 0-5
How it was run: (§3)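 Visual 0–5 grading of herbicidal effect or phytotoxicity, made 21 days after a single pre-emergence soil-surface application at 1 kg a.i./ha.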

soybean (Glycine max) [8] = assay: as above; conditions: Table 5, upland soil treatment, index 0-5
How it was run: as §3

Ammannia multiflora = assay: Test Example 3 paddy field treatment; conditions: paddy field treatment, wettable powder, active ingredient 1 kg per hectare, 21st day after the dropping, index 0-5
How it was run: as §1

Echinochloa crusgalli = assay: Test Example 3 paddy field treatment; conditions: paddy field treatment, wettable powder, active ingredient 1 kg per hectare, 21st day after the dropping, index 0-5
How it was run: as §1

Monochoria vaginalis = assay: Test Example 3 paddy field treatment; conditions: paddy field treatment, wettable powder, active ingredient 1 kg per hectare, 21st day after the dropping, index 0-5
How it was run: as §1

Scirpus juncoides = assay: Test Example 3 paddy field treatment; conditions: paddy field treatment, wettable powder, active ingredient 1 kg per hectare, 21st day after the dropping, index 0-5
How it was run: as §1

Stellaria media [9] = assay: Test Example 2 upland soil treatment; conditions: Table 5, upland soil treatment, index 0-5
How it was run: as §3

Chenopodium album [10] = assay: Test Example 2 upland soil treatment; conditions: Table 5, upland soil treatment, index 0-5
How it was run: as §3

Setaria viridis [11] = assay: Test Example 2 upland soil treatment; conditions: Table 5, upland soil treatment, index 0-5
How it was run: as §3

Digitaria adscendens [12] = assay: Test Example 2 upland soil treatment; conditions: Table 5, upland soil treatment, index 0-5
How it was run: as §3

Question: With CCNC(=O)C(Cn1cc(C)c(-c2ccccc2)n1)=NOC [Compound 19] as the compound, how does the “Herbicidal activity OS (phytotoxicity to rice)” value (Rice (Oryza sativa)) read?
Answer: 0 (herbicidal effect of not less than 0% and less than 10%, or phytotoxicity of 0% or more and less than 10%)

Question: What about the “Herbicidal activity (phytotoxicity) TA: Wheat (Triticum aestivum)” value [1] of the same compound?
Answer: 0 (herbicidal effect of not less than 0% and less than 10%, or phytotoxicity of 0% or more and less than 10%)

Question: And the “Herbicidal activity (phytotoxicity) GM: Soybean (Glycine max)” value (soybean (Glycine max) [2])?
Answer: 0 (herbicidal effect of not less than 0% and less than 10%, or phytotoxicity of 0% or more and less than 10%)

Question: And the “Herbicidal activity SM: Stellaria media” value (Stellaria media [3])?
Answer: 5 (herbicidal effect of not less than 90%, or phytotoxicity of 90% or more)

Question: What about the “Herbicidal activity CA: Chenopodium album” value (Chenopodium album [4]) of the same compound?
Answer: 5 (herbicidal effect of not less than 90%, or phytotoxicity of 90% or more)

Question: What about the “Herbicidal activity SV: Setaria viridis” value (Setaria viridis [5]) of the same compound?
Answer: 5 (herbicidal effect of not less than 90%, or phytotoxicity of 90% or more)

Question: What about the “Herbicidal activity DA: Digitaria adscendens” value (Digitaria adscendens [6]) of the same compound?
Answer: 5 (herbicidal effect of not less than 90%, or phytotoxicity of 90% or more)

Question: And the “Herbicidal activity (phytotoxicity) TA: Wheat (Triticum aestivum)” value [7]?
Answer: 0 (herbicidal effect of not less than 0% and less than 10%, or phytotoxicity of 0% or more and less than 10%)

Question: What about the “Herbicidal activity (phytotoxicity) GM: Soybean (Glycine max)” value (soybean (Glycine max) [8]) of the same compound?
Answer: 0 (herbicidal effect of not less than 0% and less than 10%, or phytotoxicity of 0% or more and less than 10%)

Question: And the “Herbicidal activity AM” value (Ammannia multiflora)?
Answer: 5 (herbicidal effect of not less than 90%, or phytotoxicity of 90% or more)

Question: And the “Herbicidal activity EC” value (Echinochloa crusgalli)?
Answer: 5 (herbicidal effect of not less than 90%, or phytotoxicity of 90% or more)

Question: What about the “Herbicidal activity MV” value (Monochoria vaginalis) of the same compound?
Answer: 5 (herbicidal effect of not less than 90%, or phytotoxicity of 90% or more)

Question: What about the “Herbicidal activity SJ” value (Scirpus juncoides) of the same compound?
Answer: 5 (herbicidal effect of not less than 90%, or phytotoxicity of 90% or more)

Question: What about the “Herbicidal activity SM: Stellaria media” value (Stellaria media [9]) of the same compound?
Answer: 5 (herbicidal effect of not less than 90%, or phytotoxicity of 90% or more)

Question: What about the “Herbicidal activity CA: Chenopodium album” value (Chenopodium album [10]) of the same compound?
Answer: 5 (herbicidal effect of not less than 90%, or phytotoxicity of 90% or more)

Question: And the “Herbicidal activity SV: Setaria viridis” value (Setaria viridis [11])?
Answer: 5 (herbicidal effect of not less than 90%, or phytotoxicity of 90% or more)

Question: What about the “Herbicidal activity DA: Digitaria adscendens” value (Digitaria adscendens [12]) of the same compound?
Answer: 5 (herbicidal effect of not less than 90%, or phytotoxicity of 90% or more)
